The subject of this experiment is MV-4-11 cells. Kind of experiment: Gene expression microarray analysis (Affymetrix PrimeView) and GSEA. More on the design: RFU PODN (11730768_x_at) / Fold change /veh PODN (11730768_x_at) / RFU LINC00158 (11744669_a_at) / Fold change /veh LINC00158 (11744669_a_at) / RFU DUSP10 (11751237_a_at) / Fold change /veh DUSP10 (11751237_a_at) / RFU ID3 (11757404_x_at) / Fold change /veh ID3 (11757404_x_at) / RFU PLEKHG5 (11737974_s_at) / Fold change /veh PLEKHG5 (11737974_s_at) / RFU LRRC4B (11730491_at) / Fold change /veh LRRC4B (11730491_at) / RFU GIMAP4 (11747438_a_at) / Fold change /veh GIMAP4 (11747438_a_at) / RFU KRT8 (11758183_x_at) / Fold change /veh KRT8 (11758183_x_at) / RFU CNN1 (11734310_a_at) / Fold change /veh CNN1 (11734310_a_at) / RFU VPS37D (11726825_at) / Fold change /veh VPS37D (11726825_at) / RFU C10orf10 (11716522_x_at) / Fold change /veh C10orf10 (11716522_x_at) / RFU KIR2DL2 /// KIR2DL4 /// KIR2DL5A /// KIR2DL5B /// KIR2DS1 /// KIR2DS2 /// KIR2DS3 /// KIR2DS4 /// KIR3DL3 /// KIR3DL3 /// KIR3DS1 (11738374_at) / Fold change /veh KIR2DL2 /// KIR2DL4 /// KIR2DL5A /// KIR2DL5B /// KIR2DS1 /// KIR2DS2 /// KIR2DS3 /// KIR2DS4 /// KIR3DL3 /// KIR3DL3 /// KIR3DS1 (11738374_at) / RFU C1QL1 (11718748_at) / Fold change /veh C1QL1 (11718748_at) / RFU TMPRSS4 (11747572_a_at) / Fold change /veh TMPRSS4 (11747572_a_at) / RFU HAMP (11756126_x_at) / Fold change /veh HAMP (11756126_x_at) / RFU RNFT2 (11725882_a_at) / Fold change /veh RNFT2 (11725882_a_at) / RFU NR4A2 (11747474_a_at) / Fold change /veh NR4A2 (11747474_a_at) / RFU ABCC12 (11746883_a_at) / Fold change /veh ABCC12 (11746883_a_at) / RFU TMEM136 (11760407_x_at) / Fold change /veh TMEM136 (11760407_x_at) / RFU CLDN22 /// WWC2 (11732394_at) / Fold change /veh CLDN22 /// WWC2 (11732394_at) / RFU HLA-DPB1 (11760878_x_at) / Fold change /veh HLA-DPB1 (11760878_x_at) / RFU SPINT1 (11716480_a_at) / Fold change /veh SPINT1 (11716480_a_at) / RFU GAP43 (11754022_s_at) / Fold change /veh GAP43 (11754022_s_at) / RFU A4GNT (11735810_at) / Fold change /veh A4GNT (11735810_at) / RFU PRB3 (11715151_x_at) / Fold change /veh PRB3 (11715151_x_at) / RFU TUBB4B (11761932_at) / Fold change /veh TUBB4B (11761932_at) / RFU CAPN14 (11732068_a_at) / Fold change /veh CAPN14 (11732068_a_at) / RFU TMCC2 (11721928_a_at) / Fold change /veh TMCC2 (11721928_a_at) / RFU IRGQ (11745062_a_at) / Fold change /veh IRGQ (11745062_a_at) / RFU FAM174B (11720279_a_at) / Fold change /veh FAM174B (11720279_a_at) / RFU TMPRSS4 (11748680_a_at) / Fold change /veh TMPRSS4 (11748680_a_at) / RFU FAM212B (11763350_a_at) / Fold change /veh FAM212B (11763350_a_at) / RFU PLEKHG5 (11743358_a_at) / Fold change /veh PLEKHG5 (11743358_a_at) / RFU ZSCAN30 (11745921_a_at) / Fold change /veh ZSCAN30 (11745921_a_at) / RFU CMKLR1 (11741424_a_at) / Fold change /veh CMKLR1 (11741424_a_at) / RFU LOC101060620 /// MAPK8IP1 (11723275_at) / Fold change /veh LOC101060620 /// MAPK8IP1 (11723275_at) / RFU SPTSSB (11747773_x_at) / Fold change /veh SPTSSB (11747773_x_at) / RFU PRSS12 (11739890_at) / Fold change /veh PRSS12 (11739890_at) / RFU BIN1 (11741810_x_at) / Fold change /veh BIN1 (11741810_x_at) / RFU WNT11 (11732464_a_at) / Fold change /veh WNT11 (11732464_a_at) / RFU C10orf10 (11716521_a_at) / Fold change /veh C10orf10 (11716521_a_at) / RFU C5orf56 (11738089_at) / Fold change /veh C5orf56 (11738089_at) / RFU CYB561 (11721691_x_at) / Fold change /veh CYB561 (11721691_x_at) / RFU ANKRD19P (11752326_a_at) / Fold change /veh ANKRD19P (11752326_a_at) / RFU OR2T12 /// OR2T33 /// OR2T8 (11738714_s_at) / Fold change /veh OR2T12 /// OR2T33 /// OR2T8 (11738714_s_at) / RFU VCAN (11748164_a_at) / Fold change /veh VCAN (11748164_a_at) / RFU JSRP1 (11732532_at) / Fold change /veh JSRP1 (11732532_at) / RFU KRTAP10-11 (11738290_x_at) / Fold change /veh KRTAP10-11 (11738290_x_at) / RFU MYO3A (11730013_a_at) / Fold change /veh MYO3A (11730013_a_at) / RFU EBF3 (11725865_a_at) / Fold change /veh EBF3 (11725865_a_at) / RFU CAMK2N1 (11719241_x_at) / Fold change /veh CAMK2N1 (11719241_x_at) / RFU C5orf56 (11738088_a_at) / Fold change /veh C5orf56 (11738088_a_at) / RFU OLFML3 (11715873_a_at) / Fold change /veh OLFML3 (11715873_a_at) / RFU LOC100653217 /// NTM (11731650_a_at) / Fold change /veh LOC100653217 /// NTM (11731650_a_at) / RFU MAPK11 (11762145_a_at) / Fold change /veh MAPK11 (11762145_a_at) / RFU FIZ1 (11724087_x_at) / Fold change /veh FIZ1 (11724087_x_at) / RFU OASL (11726364_x_at) / Fold change /veh OASL (11726364_x_at) / RFU SOX15 (11748057_x_at) / Fold change /veh SOX15 (11748057_x_at) / RFU CD79A (11719716_a_at) / Fold change /veh CD79A (11719716_a_at) / RFU HIST1H1D (11736915_at) / Fold change /veh HIST1H1D (11736915_at) / RFU CASKIN2 (11723855_a_at) / Fold change /veh CASKIN2 (11723855_a_at) / RFU LOC730098 (11760151_x_at) / Fold change /veh LOC730098 (11760151_x_at) / RFU OR4N2 (11742367_at) / Fold change /veh OR4N2 (11742367_at) / RFU PRRT2 (11749266_a_at) / Fold change /veh PRRT2 (11749266_a_at) / RFU SNX32 (11753110_a_at) / Fold change /veh SNX32 (11753110_a_at) / RFU CDHR5 (11726645_a_at) / Fold change /veh CDHR5 (11726645_a_at) / RFU RCAN1 (11760418_a_at) / Fold change /veh RCAN1 (11760418_a_at) / RFU FAM167A (11723789_a_at) / Fold change /veh FAM167A (11723789_a_at) / RFU FAM26E (11764081_at) / Fold change /veh FAM26E (11764081_at) / RFU ISYNA1 (11749810_s_at) / Fold change /veh ISYNA1 (11749810_s_at) / RFU ACY1 (11761880_at) / Fold change /veh ACY1 (11761880_at) / RFU 11764098_at / Fold change /veh 11764098_at / RFU SAMD14 (11745864_x_at) / Fold change /veh SAMD14 (11745864_x_at) / RFU NPB (11741838_a_at) / Fold change /veh NPB (11741838_a_at) / RFU TMPRSS6 (11731388_a_at) / Fold change /veh TMPRSS6 (11731388_a_at) / RFU KRTAP10-2 (11738614_at) / Fold change /veh KRTAP10-2 (11738614_at) / RFU ARHGAP8 /// PRR5-ARHGAP8 (11727945_x_at) / Fold change /veh ARHGAP8 /// PRR5-ARHGAP8 (11727945_x_at) / RFU KRTAP5-7 /// NADSYN1 (11734609_at) / Fold change /veh KRTAP5-7 /// NADSYN1 (11734609_at) / RFU RASL12 (11751679_a_at) / Fold change /veh RASL12 (11751679_a_at) / RFU CDKN2B (11736163_a_at) / Fold change /veh CDKN2B (11736163_a_at) / RFU PRF1 (11729649_at) / Fold change /veh PRF1 (11729649_at) / RFU, ZNF638 /// ZNF638-IT1 / Fold change vs veh, ZNF638 /// ZNF638-IT1 / RFU, PANK3 / Fold change vs veh, PANK3 / RFU, SH3YL1 / Fold change vs veh, SH3YL1 / RFU, ZEB2 / Fold change vs veh, ZEB2 / RFU, NRIP1 / Fold change vs veh, NRIP1 / RFU, PTTG1IP / Fold change vs veh, PTTG1IP / RFU, CAPN2 / Fold change vs veh, CAPN2 / RFU, MED14 / Fold change vs veh, MED14 / RFU, SNORA58 / Fold change vs veh, SNORA58 / RFU, C1orf63 / Fold change vs veh, C1orf63 / RFU, LRRFIP1 / Fold change vs veh, LRRFIP1 / RFU, NDUFAF7 / Fold change vs veh, NDUFAF7 / RFU, SLC12A2 / Fold change vs veh, SLC12A2 / RFU, IBTK / Fold change vs veh, IBTK / RFU, ESF1 / Fold change vs veh, ESF1 / Fold change vs veh, TMEM50B / RFU, TAOK1 / Fold change vs veh, TAOK1 / RFU, ACBD3 / Fold change vs veh, ACBD3 / RFU, TMA16 / Fold change vs veh, TMA16 / RFU, RWDD3 / Fold change vs veh, RWDD3 / RFU, BCAT1 / Fold change vs veh, BCAT1 / RFU, EDEM3 / Fold change vs veh, EDEM3 / RFU, TMEM33 / Fold change vs veh, TMEM33 / RFU, WDR75 / Fold change vs veh, WDR75 / RFU, AHCTF1 / Fold change vs veh, AHCTF1 / RFU, TFRC / Fold change vs veh, TFRC / RFU, ZDHHC17 / Fold change vs veh, ZDHHC17 / RFU, NOM1 / Fold change vs veh, NOM1 / RFU, ARL8B / Fold change vs veh, ARL8B / RFU, ZBTB11 / Fold change vs veh, ZBTB11 / RFU, TAMM41 / Fold change vs veh, TAMM41 / RFU, KIAA1704 /// LOC100996395 / Fold change vs veh, KIAA1704 /// LOC100996395 / RFU, ING1 / Fold change vs veh, ING1 / RFU, TRMT61B / Fold change vs veh, TRMT61B / RFU, FUBP3 / Fold change vs veh, FUBP3 / RFU, TP53 / Fold change vs veh, TP53 / RFU, TNKS2 / Fold change vs veh, TNKS2 / RFU, ZFP14 / Fold change vs veh, ZFP14 / RFU, ACTR2 / Fold change vs veh, ACTR2 / RFU, PPP3R1 / Fold change vs veh, PPP3R1 / RFU, PIK3R1 / Fold change vs veh, PIK3R1 / RFU, HNRNPA1 / Fold change vs veh, HNRNPA1 / RFU, RNF170 / Fold change vs veh, RNF170 / RFU, ZNF28 / Fold change vs veh, ZNF28 / RFU, RNGTT / Fold change vs veh, RNGTT / RFU, OGT / Fold change vs veh, OGT / RFU, BRD1 / Fold change vs veh, BRD1 / RFU, MARS / Fold change vs veh, MARS / RFU, ZNF655 / Fold change vs veh, ZNF655 / RFU, FAHD1 / Fold change vs veh, FAHD1 / RFU, BDP1 / Fold change vs veh, BDP1 / RFU, LRRCC1 / Fold change vs veh, LRRCC1 / RFU, ARID1A / Fold change vs veh, ARID1A / RFU, ZNF146 / Fold change vs veh, ZNF146 / RFU, ZNF330 / Fold change vs veh, ZNF330 / RFU, GPN3 / Fold change vs veh, GPN3 / RFU, C9orf123 / Fold change vs veh, C9orf123 / RFU, N4BP2L2 / Fold change vs veh, N4BP2L2 / RFU, ARFIP1 / Fold change vs veh, ARFIP1 / RFU, FAM179B / Fold change vs veh, FAM179B / RFU, BCL10 / Fold change vs veh, BCL10 / RFU, UHRF1BP1L / Fold change vs veh, UHRF1BP1L / RFU, BET1 / Fold change vs veh, BET1 / RFU, CNOT2 / Fold change vs veh, CNOT2 / RFU, ZNF268 / Fold change vs veh, ZNF268 / Fold change vs veh, ZNF507 / RFU, DGCR2 / Fold change vs veh, DGCR2 / RFU, WDSUB1 / Fold change vs veh, WDSUB1 / Fold change vs veh, HSP90B1 /// MIR3652 / RFU, ADSS / Fold change vs veh, ADSS / RFU, GK / Fold change vs veh, GK / RFU, ZNF148 / Fold change vs veh, ZNF148 / RFU, TAF9 / Fold change vs veh, TAF9 / RFU, SLC1A5 / Fold change vs veh, SLC1A5 / RFU, SLMO2 / Fold change vs veh, SLMO2 / RFU, ABCC4 / Fold change vs veh, ABCC4 / RFU, LOC101060439 /// RAP1B / Fold change vs veh, LOC101060439 /// RAP1B / RFU, RFX7 / Fold change vs veh, RFX7 / RFU, GTPBP10 / Fold change vs veh, GTPBP10 / RFU, CNEP1R1 / Fold change vs veh, CNEP1R1 / RFU, BIVM-ERCC5 /// ERCC5 / Fold change vs veh, BIVM-ERCC5 /// ERCC5 / RFU, ILF3 / Fold change vs veh, ILF3 / RFU 11762660_at / Fold change /veh 11762660_at / RFU VCAN (11757783_s_at) / Fold change /veh VCAN (11757783_s_at) / RFU DDX43 (11728927_at) / Fold change /veh DDX43 (11728927_at) / RFU KRT8 (11758188_x_at) / Fold change /veh KRT8 (11758188_x_at) / RFU NKD1 (11759106_at) / Fold change /veh NKD1 (11759106_at) / RFU SRD5A1 (11742802_a_at) / Fold change /veh SRD5A1 (11742802_a_at) / RFU TPSAB1 /// TPSB2 (11721975_s_at) / Fold change /veh TPSAB1 /// TPSB2 (11721975_s_at) / RFU GSTM3 (11746129_a_at) / Fold change /veh GSTM3 (11746129_a_at) / RFU IL23R (11737362_x_at) / Fold change /veh IL23R (11737362_x_at) / RFU TMEM51 (11727254_a_at) / Fold change /veh TMEM51 (11727254_a_at) / RFU PIWIL2 (11732686_x_at) / Fold change /veh PIWIL2 (11732686_x_at) / RFU ORM1 (11744905_x_at) / Fold change /veh ORM1 (11744905_x_at) / RFU CCDC152 (11743942_at) / Fold change /veh CCDC152 (11743942_at) / RFU ECM1 (11717891_a_at) / Fold change /veh ECM1 (11717891_a_at) / RFU IL23R (11748794_a_at) / Fold change /veh IL23R (11748794_a_at) / RFU TNFAIP8L3 (11732012_x_at) / Fold change /veh TNFAIP8L3 (11732012_x_at) / RFU MBOAT4 (11741988_at) / Fold change /veh MBOAT4 (11741988_at) / RFU 11764193_at / Fold change /veh 11764193_at / RFU TMEM53 (11763286_at) / Fold change /veh TMEM53 (11763286_at) / RFU MAGEB2 (11727129_at) / Fold change /veh MAGEB2 (11727129_at) / RFU TMEM200A (11744735_a_at) / Fold change /veh TMEM200A (11744735_a_at) / RFU CCDC152 (11751479_a_at) / Fold change /veh CCDC152 (11751479_a_at) / RFU FAM211A (11726209_a_at) / Fold change /veh FAM211A (11726209_a_at) / RFU RGS16 (11746705_a_at) / Fold change /veh RGS16 (11746705_a_at) / RFU VCAN (11755009_s_at) / Fold change /veh VCAN (11755009_s_at) / RFU RHOB (11743442_s_at) / Fold change /veh RHOB (11743442_s_at) / RFU RGS16 (11720943_a_at) / Fold change /veh RGS16 (11720943_a_at) / RFU RGS16 (11720944_at) / Fold change /veh RGS16 (11720944_at) / RFU, VPS4B / Fold change vs veh, VPS4B / RFU, CREB1 / Fold change vs veh, CREB1 / RFU, DNAJC13 / Fold change vs veh, DNAJC13 / RFU, GNAQ / Fold change vs veh, GNAQ / RFU, CDK5R1 / Fold change vs veh, CDK5R1 / RFU, ZRANB3 / Fold change vs veh, ZRANB3 / RFU, CUL4A / Fold change vs veh, CUL4A / RFU, CCNY / Fold change vs veh, CCNY / RFU, UFL1 / Fold change vs veh, UFL1 / RFU, COG3 / Fold change vs veh, COG3 / RFU, DIAPH2 / Fold change vs veh, DIAPH2 / RFU, SKA2 / Fold change vs veh, SKA2 / RFU, AFF3 / Fold change vs veh, AFF3 / RFU, LMF1 / Fold change vs veh, LMF1 / RFU, IPO11 / Fold change vs veh, IPO11 / RFU, DFFB / Fold change vs veh, DFFB / RFU, FOXP1 / Fold change vs veh, FOXP1 / RFU, CARD8 / Fold change vs veh, CARD8 / RFU, STRN3 / Fold change vs veh, STRN3 / RFU, ADK / Fold change vs veh, ADK / RFU, RASSF2 / Fold change vs veh, RASSF2 / RFU, WIPF1 / Fold change vs veh, WIPF1 / RFU, LARP1B / Fold change vs veh, LARP1B / RFU, RASA1 / Fold change vs veh, RASA1 / RFU, RB1 / Fold change vs veh, RB1 / RFU, PPFIA1 / Fold change vs veh, PPFIA1 / RFU, MAT2A / Fold change vs veh, MAT2A / RFU, CCT5 / Fold change vs veh, CCT5 / RFU, WDR92 / Fold change vs veh, WDR92 / RFU, CUX1 / Fold change vs veh, CUX1 / RFU, TTC7A / Fold change vs veh, TTC7A / RFU, TMEM135 / Fold change vs veh, TMEM135 / RFU, DEPTOR / Fold change vs veh, DEPTOR / RFU, CPM / Fold change vs veh, CPM / RFU, DNAJB6 / Fold change vs veh, DNAJB6 / RFU, CACNA2D3 / Fold change vs veh, CACNA2D3 / RFU, DTX4 / Fold change vs veh, DTX4 / RFU, TFCP2 / Fold change vs veh, TFCP2 / RFU, GMCL1 /// GMCL1P1 / Fold change vs veh, GMCL1 /// GMCL1P1 / RFU, AEBP2 / Fold change vs veh, AEBP2 / RFU, SNHG1 /// SNORD22 /// SNORD25 /// SNORD26 /// SNORD27 /// SNORD28 /// SNORD29 /// SNORD31 / Fold change vs veh, SNHG1 /// SNORD22 /// SNORD25 /// SNORD26 /// SNORD27 /// SNORD28 /// SNORD29 /// SNORD31 / Fold change (Aza/veh), C12orf56 (ProbeSet 11735607_a_at) / Fold change (ACY-1035/veh), C12orf56 (ProbeSet 11735607_a_at) / Fold change (Aza/veh), FGFR1OP (ProbeSet 11751329_s_at) / Fold change (ACY-1035/veh), FGFR1OP (ProbeSet 11751329_s_at) / Fold change (Aza/veh), VPS36 (ProbeSet 11739960_a_at) / Fold change (ACY-1035/veh), VPS36 (ProbeSet 11739960_a_at) / RFU SYPL1 (11715823_x_at) / Fold change /veh SYPL1 (11715823_x_at) / RFU IGFBP7 (11715501_s_at) / Fold change /veh IGFBP7 (11715501_s_at) / RFU REEP3 (11722064_at) / Fold change /veh REEP3 (11722064_at) / RFU IGLL1 (11728026_x_at) / Fold change /veh IGLL1 (11728026_x_at): dose or concentration left out as unconfirmed. In kind it is cell-based, human. To be noted: ProbeSet 11725787_a_at; LIST B.

From PMC5218480 (PLoS ONE, 2017) come the findings set out here.

For `Nc1ccc(-c2cccs2)cc1NC(=O)c1ccc2c(c1)cc(C1CC1)n2CCN1CCOCC1` [ACY-1035], the “RFU, TMA16” value was determined as 138.28 RFU.
